Data published in ChEMBL document CHEMBL1141632, “Synthesis and evaluation of novel 3,4,6-substituted 2-quinolones as FMS kinase inhibitors” (Bioorg Med Chem Lett, 2008).
Values belong to the compound of their own block, whether it stands above or below them. Calls of active or inactive are those of the source. The calls are words filed in the database; no cut-off is given here.

Tests used:
[1] = biological target: T1, Macrophage colony-stimulating factor 1 receptor (Homo sapiens, UniProt P07333); test: Inhibition of human cytoplasmic macrophage colony-stimulating factor 1 receptor by fluorescence polarization
[2] = biological target: T2, Receptor-type tyrosine-protein kinase FLT3 (Homo sapiens, UniProt P36888); test: Inhibition of FLT3
T2 sequence (P36888 whole entry): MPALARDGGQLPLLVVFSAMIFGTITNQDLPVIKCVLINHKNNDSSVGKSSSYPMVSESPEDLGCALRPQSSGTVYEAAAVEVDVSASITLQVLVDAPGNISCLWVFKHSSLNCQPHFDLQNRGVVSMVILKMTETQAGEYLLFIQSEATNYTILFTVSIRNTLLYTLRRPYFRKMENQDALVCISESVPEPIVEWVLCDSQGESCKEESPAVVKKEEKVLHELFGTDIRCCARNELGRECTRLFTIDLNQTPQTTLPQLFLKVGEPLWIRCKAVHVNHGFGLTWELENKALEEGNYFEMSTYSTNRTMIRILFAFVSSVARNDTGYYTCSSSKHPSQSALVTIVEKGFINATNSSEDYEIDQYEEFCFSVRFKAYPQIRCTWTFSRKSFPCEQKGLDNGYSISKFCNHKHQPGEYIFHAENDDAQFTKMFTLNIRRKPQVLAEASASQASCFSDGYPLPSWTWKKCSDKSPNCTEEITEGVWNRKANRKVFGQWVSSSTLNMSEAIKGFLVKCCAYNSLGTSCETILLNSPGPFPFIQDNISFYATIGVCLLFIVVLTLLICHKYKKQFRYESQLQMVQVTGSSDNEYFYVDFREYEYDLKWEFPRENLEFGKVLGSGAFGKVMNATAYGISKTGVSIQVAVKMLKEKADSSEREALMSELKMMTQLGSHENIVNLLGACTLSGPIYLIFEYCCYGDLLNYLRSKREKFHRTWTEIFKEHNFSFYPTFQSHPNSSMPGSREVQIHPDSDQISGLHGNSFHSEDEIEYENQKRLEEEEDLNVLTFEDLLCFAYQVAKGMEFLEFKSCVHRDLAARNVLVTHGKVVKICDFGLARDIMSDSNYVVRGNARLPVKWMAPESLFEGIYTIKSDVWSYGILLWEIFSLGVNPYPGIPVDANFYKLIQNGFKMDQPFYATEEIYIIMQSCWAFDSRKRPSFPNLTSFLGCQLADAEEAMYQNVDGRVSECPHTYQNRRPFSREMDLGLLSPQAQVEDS

[3] = biological target: Mast/stem cell growth factor receptor Kit (Homo sapiens, UniProt P10721); test: Inhibition of KIT
[4] = biological target: Platelet-derived growth factor receptor beta (Homo sapiens, UniProt P09619); test: Inhibition of PDGFRbeta
[5] = Half life in rat at 2 mg/kg, iv and 10 mg/kg, po; type: ADME, organism-based; conditions: in vivo
[6] = Cmax in rat at 2 mg/kg, iv and 10 mg/kg, po; type: ADME, organism-based; conditions: in vivo
[7] = Volume of distribution in rat at 2 mg/kg, iv and 10 mg/kg, po; type: ADME, organism-based; conditions: in vivo
[8] = Clearance in rat at 2 mg/kg, iv and 10 mg/kg, po; type: ADME, organism-based; conditions: in vivo
[9] = Oral bioavailability in rat at 10 mg/kg; type: ADME, organism-based; conditions: in vivo
[10] = Inhibition of CSF1-induced human BMDM cell proliferation; type: functional, cell-based
[11] = biological target: T1, Macrophage colony-stimulating factor 1 receptor; test: Inhibition of human cytoplasmic macrophage colony-stimulating factor 1 receptor at 5 uM by fluorescence polarization
Mus musculus [12] = test: Inhibition of FMS in B6C3F1 mouse assessed as reduction in CSF1-induced C-fos levels at 5 mg/kg, po; type: functional, organism-based; parameters: dose 5 mg/kg
Mus musculus [13] = test: Inhibition of FMS in B6C3F1 mouse assessed as reduction in CSF1-induced C-fos levels at 20 mg/kg, po; type: functional, organism-based; parameters: dose 20 mg/kg
Mus musculus [14] = test: Inhibition of FMS in B6C3F1 mouse assessed as reduction in CSF1-induced C-fos levels at 50 mg/kg, po; type: functional, organism-based; parameters: dose 50 mg/kg

T1 sequence (P07333 whole entry): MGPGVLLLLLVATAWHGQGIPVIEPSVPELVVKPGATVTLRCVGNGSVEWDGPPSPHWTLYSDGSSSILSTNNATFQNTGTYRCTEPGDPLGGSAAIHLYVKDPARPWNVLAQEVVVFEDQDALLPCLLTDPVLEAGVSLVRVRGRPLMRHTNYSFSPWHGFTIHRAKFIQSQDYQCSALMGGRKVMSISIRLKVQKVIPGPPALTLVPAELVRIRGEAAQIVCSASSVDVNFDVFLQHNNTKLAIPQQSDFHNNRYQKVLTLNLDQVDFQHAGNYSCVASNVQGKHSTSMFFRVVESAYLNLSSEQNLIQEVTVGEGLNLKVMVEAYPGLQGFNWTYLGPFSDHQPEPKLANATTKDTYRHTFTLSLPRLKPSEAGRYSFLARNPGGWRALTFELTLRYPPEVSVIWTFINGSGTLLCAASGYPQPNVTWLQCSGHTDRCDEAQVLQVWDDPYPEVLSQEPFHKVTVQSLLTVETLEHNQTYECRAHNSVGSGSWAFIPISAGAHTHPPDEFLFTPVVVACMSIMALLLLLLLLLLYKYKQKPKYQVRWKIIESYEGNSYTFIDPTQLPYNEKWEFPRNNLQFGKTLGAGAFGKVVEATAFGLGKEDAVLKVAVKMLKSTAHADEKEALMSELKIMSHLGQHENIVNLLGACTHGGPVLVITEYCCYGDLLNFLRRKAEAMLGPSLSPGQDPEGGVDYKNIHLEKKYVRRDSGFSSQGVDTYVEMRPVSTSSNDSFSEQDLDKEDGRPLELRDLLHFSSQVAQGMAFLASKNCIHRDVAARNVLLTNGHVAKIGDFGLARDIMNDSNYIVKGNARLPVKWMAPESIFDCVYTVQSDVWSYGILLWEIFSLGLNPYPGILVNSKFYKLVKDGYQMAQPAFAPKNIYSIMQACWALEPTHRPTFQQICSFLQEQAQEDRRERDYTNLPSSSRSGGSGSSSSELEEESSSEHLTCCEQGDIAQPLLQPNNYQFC
Mast/stem cell growth factor receptor Kit, sequence (P10721 whole entry): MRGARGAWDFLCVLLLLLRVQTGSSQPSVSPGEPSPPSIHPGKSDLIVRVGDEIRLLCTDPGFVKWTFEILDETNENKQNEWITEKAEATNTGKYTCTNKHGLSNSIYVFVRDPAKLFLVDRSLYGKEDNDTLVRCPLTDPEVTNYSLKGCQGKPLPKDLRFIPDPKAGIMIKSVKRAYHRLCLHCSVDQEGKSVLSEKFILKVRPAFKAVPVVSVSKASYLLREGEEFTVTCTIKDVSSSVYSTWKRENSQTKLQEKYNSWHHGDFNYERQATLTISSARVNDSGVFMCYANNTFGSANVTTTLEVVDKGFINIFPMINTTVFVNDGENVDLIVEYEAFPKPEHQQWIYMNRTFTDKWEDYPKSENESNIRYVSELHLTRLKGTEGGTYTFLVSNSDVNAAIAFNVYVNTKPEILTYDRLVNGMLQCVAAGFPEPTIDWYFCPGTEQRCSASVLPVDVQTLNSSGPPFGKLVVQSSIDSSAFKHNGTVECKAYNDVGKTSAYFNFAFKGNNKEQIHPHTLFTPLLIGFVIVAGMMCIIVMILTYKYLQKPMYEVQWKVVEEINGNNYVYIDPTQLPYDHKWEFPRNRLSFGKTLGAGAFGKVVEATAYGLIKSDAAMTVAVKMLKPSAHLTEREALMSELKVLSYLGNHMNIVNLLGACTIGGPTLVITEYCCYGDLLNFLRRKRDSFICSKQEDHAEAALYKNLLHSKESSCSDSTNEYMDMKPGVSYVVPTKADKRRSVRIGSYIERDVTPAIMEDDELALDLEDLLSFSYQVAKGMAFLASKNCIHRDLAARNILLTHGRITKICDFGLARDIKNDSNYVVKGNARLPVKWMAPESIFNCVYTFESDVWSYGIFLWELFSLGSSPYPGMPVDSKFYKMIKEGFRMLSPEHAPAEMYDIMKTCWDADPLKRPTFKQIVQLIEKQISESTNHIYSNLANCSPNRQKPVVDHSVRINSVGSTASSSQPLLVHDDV
Platelet-derived growth factor receptor beta, sequence (P09619 whole entry): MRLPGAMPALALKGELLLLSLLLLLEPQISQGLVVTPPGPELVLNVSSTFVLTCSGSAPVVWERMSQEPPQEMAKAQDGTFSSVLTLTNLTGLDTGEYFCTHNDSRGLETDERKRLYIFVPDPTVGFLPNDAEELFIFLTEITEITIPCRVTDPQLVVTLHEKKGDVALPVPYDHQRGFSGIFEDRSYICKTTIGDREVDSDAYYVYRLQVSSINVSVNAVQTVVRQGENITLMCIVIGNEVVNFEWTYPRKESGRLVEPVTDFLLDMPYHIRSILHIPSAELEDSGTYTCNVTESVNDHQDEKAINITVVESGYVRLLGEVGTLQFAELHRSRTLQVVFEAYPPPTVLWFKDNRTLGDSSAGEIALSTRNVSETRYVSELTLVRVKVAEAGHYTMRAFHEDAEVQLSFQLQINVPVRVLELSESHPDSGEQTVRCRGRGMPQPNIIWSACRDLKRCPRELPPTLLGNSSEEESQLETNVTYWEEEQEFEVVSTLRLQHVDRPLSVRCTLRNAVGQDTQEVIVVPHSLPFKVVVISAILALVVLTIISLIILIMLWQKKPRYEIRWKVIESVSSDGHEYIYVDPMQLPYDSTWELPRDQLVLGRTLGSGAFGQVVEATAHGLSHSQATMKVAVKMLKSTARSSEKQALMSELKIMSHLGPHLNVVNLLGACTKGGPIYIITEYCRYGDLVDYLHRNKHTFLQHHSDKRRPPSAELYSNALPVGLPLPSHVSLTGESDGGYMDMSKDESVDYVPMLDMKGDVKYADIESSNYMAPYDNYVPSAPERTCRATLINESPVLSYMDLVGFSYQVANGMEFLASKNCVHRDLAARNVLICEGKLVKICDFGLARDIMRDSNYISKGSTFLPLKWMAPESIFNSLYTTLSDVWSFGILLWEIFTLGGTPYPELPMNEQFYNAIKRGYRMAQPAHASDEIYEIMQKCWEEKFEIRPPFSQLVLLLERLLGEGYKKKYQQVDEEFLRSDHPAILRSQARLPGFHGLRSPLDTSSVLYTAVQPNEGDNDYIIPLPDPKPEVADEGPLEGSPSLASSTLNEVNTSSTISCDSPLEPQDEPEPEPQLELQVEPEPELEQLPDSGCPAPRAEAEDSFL

IC50 [1]: > 5000 nM
Compound: Cc1cc(-c2c(-c3ccccc3)c3cc(N)ccc3[nH]c2=O)on1

IC50 [1]: > 5000 nM
Compound: Cc1cc(-c2c(-c3ccccc3)c3ccccc3[nH]c2=O)on1

The next lines start with the compound.

Compound: CCc1ccc(-c2c(-c3c[nH]c(C)n3)c(=O)[nH]c3ccc(C#N)cc23)cc1
IC50 [2]: 47 nM
IC50 [3]: 170 nM
IC50 [4]: > 1000 nM
half-life [5]: 1.07 h
Cmax [6]: 317 ng/mL
Vd [7]: 8.6 L/kg
clearance [8]: 93 mL/min/kg
bioavailability [9]: 56%

Compound: CCc1ccc(-c2c(-c3cnc(C)[nH]3)c(=O)[nH]c3ccc(Cl)cc23)cc1
IC50 [10]: 28 nM
IC50 [2]: 34 nM
IC50 [3]: 67 nM
IC50 [4]: > 1000 nM

Compound: Cc1cc(-c2c(-c3ccccc3)c3cnccc3[nH]c2=O)on1
inhibition [11]: 8%

Compound: CCc1ccc(-c2c(-c3cnc(C)[nH]3)c(=O)[nH]c3ccc(C#N)cc23)cc1
Activity (Mus musculus [12]): Active
Activity (Mus musculus [13]): Active
Activity (Mus musculus [14]): Active
IC50 [10]: 5 nM

Compound: Cc1cc(-c2c(-c3ccccc3)c3ncccc3[nH]c2=O)on1
IC50 [1]: > 20000 nM
